Legend:
Pdk3 expression in HSPCs = experiment: Pdk3 mRNA levels and immunoblotting in HSCs treated with inhibitors; type: cell-based, mouse
Method: The same number of cells from each population to be analyzed were sorted into PBS with 2% FBS. The cells then were washed with PBS and Lysised by RIPA. Equal amounts of protein extracts were fractionated by 12.5% SDS-PAGE and transferred to a PVDF membrane (IPVH00010, Merck Millipore). After blocked with 5% non-fat milk in Tris-buffered saline with Tween-20 (TBST, pH 7.6) for 1 h at room temperature, the membranes were incubated with primary antibodies anti-phospho-PDHE1-A type I (Ser293) (rabbit, 1:1000, ABS204, Merck Millipore), anti-Sphk2 (rabbit, 1:1000, 17096, Proteintech), anti-PDK3 (rabbit, 1:1000, 4970s, Proteintech), or anti-βactin (rabbit, 1:1000, 2118, Cell Signaling Technology), or with primary antibodies anti-PDK3 (rabbit, 1:1000, 12215, Proteintech), anti-β-actin (rabbit, 1:1000, 4970s, Cell Signaling Technology), overnight at 4° C. and then incubated with secondary antibodies (rabbit, 1:10,000, W401B, Promega) for 1 h at room temperature, which was detected by exposure to x-ray film, or by digital imaging with a charge-coupled device camera system (Odyssey Fc). The images shown are representative of images from at least three experiments.

aged HSPCs = experiment: ABC294640 treatment of aged mice to attenuate HSC aging; type: in vivo, mouse
From the text: (§1) B6N.129S6-Sphk1tm1Rlp/J (Sphk1Δ/Δ) and B6N.129S6-Sphk2tm1Rlp/J (Sphk2Δ/Δ) mice were obtained from the Jackson Laboratory. To achieve tissue-specific deletion of Sphk2, the Sphk2^flox/flox mice were crossed with Vav-Cre transgenic mice. Sphk2^flox/flox mice was constructed by Cyagen Biosciences Inc. Briefly, linearized targeting vector was electroporated into embryonic stem (ES) cells and positive clones were identified by Southern blotting and injected into C57BL/6 blastocysts followed by chimera production to obtain germline transmission. The Frt-flanked Neo cassette was subsequently removed by mating with Flpe mice. 2-month-old mice or more than 20-month old for aging we used as indicated. 5 FU (Sigma-Aldrich) was injected once or once a week for survival curve as indicated in the tail vein at 150 μg/g body weight. Sphk2 inhibitor ABC294640 (Target Molecule Corp T6750) and PDK inhibitor Sodium dichloroacetate (DCA) (Selleck Chemicals S8615) were intraperitoneal injected at 25 mg/kg. […] Animals were randomly included in the experiments according to genotyping results as a mix of male and female. All animal experiments were performed according to protocols approved by the institutional animal care and use committee.
(§2) For phenotype analysis and hematopoietic purification, hematopoietic cells were harvested from bone marrow (femur and tibia). For cell surface phenotyping, a lineage cocktail (Lin, phycoerythrin (PE)-Cy5) was used, including anti-CD3 (145-2C11), anti-CD4 (RM4-5), anti-CD8 (53-6.7), anti-Mac-1 (M1/70), anti-Gr1 (RB6-8C5), anti-B220 (RA3-6B2), anti-IgM (11/41) and anti-TER119 (TER-119) (100 ng antibody cocktail per million bone marrow cells, Biolegend). Monoclonal antibodies to SCA1 (D7, Biolegend), c-KIT (2B8, Biolegend), FLK2 (A2F10, Biolegend), CD34 (RAM34, eBioscience), CD48 (HM48-1, Biolegend), CD41 (MWReg30, eBioscience), CD150 (TC15-12F12.2, BioLegend), CD16/32 (93, Biolegend), IL-7R (A7R34, Biolegend) (all used as 50 ng per million bone marrow cells) were also used where indicated.
For lineage analysis of peripheral blood, monoclonal antibodies to CD45.1 (A20, eBioscience), CD45.2 (104, Biolegend), CD3, B220, Mac-1 and Gr1 were used.
For cell cycle, DNA damage, the cells were fixed, permeabilized and stained by anti-Ki67 (16A8, Biolegend).
(§3) The cells were further incubated with 0.1 ug/uL DAPI (1306, Thermo Scientific) for 30 min at room temperature. For apoptosis and ROS analysis, the cells were stained by AnnexinV or DCFDA (D6883, Sigma-Aldrich).
Bone marrow cells were diluted to the indicated concentration in PBS and were seeded into methylcellulose medium M3434 (StemCell Technologies) for CFU-GM, CFU-GEMM, and BFU-E colony formation assays according to the manufacturer's

[1] = test system: functional HSCs (engrafted donor cells in PB); experiment: Competitive repopulation (serial transplantation) of bone marrow cells from mice after 5 FU and ABC294640 treatment; type: in vivo, mouse; conditions: for increase of reconstitution (engrafted donor cells): at 16 weeks, vs vehicle treated bone marrow cells
Method: For lineage analysis of peripheral blood, monoclonal antibodies to CD45.1 (A20, eBioscience), CD45.2 (104, Biolegend), CD3, B220, Mac-1 and Gr1 were used. 2.0×10^5 CD45.2 bone marrow cells and 2.0×10^5 CD45.1 rescue bone marrow cells were transplanted into lethally irradiated CD45.1 recipients. Adult recipient mice (CD45.1) were irradiated with an Orthovoltage X-ray source delivering approximately in two equal doses of 4.5 Gy at least 3 hours apart. For secondary or tertiary transplantation, bone marrow cells from each recipient were injected into one or two irradiated new recipient mouse (1×10^6 per recipient, depending on the number of recipients) during each round of transplantation. Every 4 weeks after transplantation, peripheral blood was collected from the submandibular vein. Hematopoietic repopulation was measured from donor-derived blood cells (CD45.2) or human-derived blood cells (human CD45).

[2] = test system: HSPCs (LT-HSC, ST-HSC, MPP, CD150HSC); experiment: ABC294640 treatment after 5 FU chemotherapeutic stress: HSPC numbers and ROS; type: in vivo, mouse; conditions: vs vehicle
From the text: as §1, §2, §3
Cell sorting and analysis were performed using an Attune NxT analyzer (Thermo Fisher Scientific) or InFlux Cell Sorter (BD Biosciences). Data analysis was performed using FlowJo software.

[3] = 18-month old mice, treatment for 10 weeks, vs vehicle
[4] = donor-derived lineage cells at 16 weeks after transplantation

SMILES: O=C(NCc1ccncc1)C12CC3CC(C1)CC(c1ccc(Cl)cc1)(C3)C2 [ABC294640, 3-(4-chloro-phenyl)-adamantane-1-carboxylic acid (pyridin-4-ylmethyl)-amide]
- Pdk3 expression in HSPCs (Pdk3 expression in HSPCs): could upregulate Pdk3 expression
- CD150 HSC quiescence (aged HSPCs; [3]): preserved
- HSPC pool (aged HSPCs; [3]): significantly expanded
- increase of CD41- HSC population (aged HSPCs; [3]): 2.2 fold
- increase of CD150low HSC population (aged HSPCs; [3]): 3.6 fold
- reduction of DNA damage in CD150 HSPCs (aged HSPCs; [3]): 43.7%
- reduction of ROS level in CD150 HSPCs (aged HSPCs; [3]): 63%
- lymphopoiesis in peripheral blood (aged HSPCs; aged mice, vs vehicle): markedly increased lymphopoiesis
- myeloid skewing in peripheral blood (aged HSPCs; aged mice, vs vehicle): suppressed myeloid skewing
- colony-forming progenitor frequency in bone marrow cells (aged HSPCs; aged mice, vs vehicle treated controls): significantly higher
- lymphopoiesis in recipients [1, 4]: markedly promoted lymphopoiesis
- myeloid skewing in recipients [1, 4]: suppressed myeloid skewing
- increase of reconstitution (engrafted donor cells) ([1]; primary transplantation): 1.7 fold
- increase of reconstitution (engrafted donor cells) ([1]; secondary transplantation): 1.5 fold
- increase of reconstitution (engrafted donor cells) ([1]; tertiary transplantation): 1.9 fold
- ROS level in CD150 HSCs ([2]; day 14 after 5 FU treatment): markedly reduced
- increase of CD150 HSC number ([2]; day 14 post 5 FU): 2.2 fold
- increase of LT-HSC number ([2]; day 14 post 5 FU): 2.2 fold
- increase of ST-HSC number ([2]; day 14 post 5 FU): 1.6 fold

Source: patent US12622898B2, “Methods and compositions for improving bone marrow hematopoietic functions” (SUN YAT-SEN UNIVERSITY, priority 2019, dated 2026)
